Laboratory results as given in patent US6359111B1, “Opioid receptor targeting” (NeoRx Corporation, priority 1998, dated 2002).
Values joined by “and” are separate entries in the source; they are usually repeats but may differ in a detail not shown here. Equal values may be shown once.

Target: T1, Delta-Opioid Receptor (Mus musculus, UniProt P32300)
T1 construct: host or cells: NG108-15
Test: Delta-opioid receptor binding: inhibition of specific binding of 3H NID to intact NG108-15 cells
Conditions: for EC50: EC50 (M), competition with 3H NID, intact NG108-15 cells, 2 hr at 37° C.
Protocol: To do so, 1 to 4 serial dilutions of test compounds and naltrindole (NID, Sigma) are prepared to generate solutions with concentrations ranging from 10^−3 to 10^−14 M in 50 mM Tris buffer, pH 7.5. ^3H NID (American Radiolabeled Chemicals, St. Louis, Mo., specific activity 49 dpm/10^−15 mol) is prepared in Tris at a concentration of 10^−9 M. Cultured cells of the neruablastoma/glioblastoma hybrid cell line NG108-15 (American Type Culture Collection) are briefly trypsinized, washed with media, and resuspended at 6×10^5 cells/mL. 20 μL of test compound or NID solution and 20 μL of ^3H NID are added to each of 96 wells of a Multiscreen assay system (Millipore) MAFB. 160 μL of cell suspension in Dulbecco's MEM+HAT with 10% Fetal Bovine Serum are added. The reactions are allowed to equilibrate 2 hr at 37° C., vacuum filtered, washed 2× with 200 μL ice cold Tris buffer and air dried. The filters are punched out of the plate into scintillation vials and mixed on a shaker overnight before counting.
Data is analyzed by the Prism software package (GraphPad Software, Inc., San Diego, Calif.) using a non-linear curve fit routine for one site competitive binding.

T1 sequence (P32300 whole entry): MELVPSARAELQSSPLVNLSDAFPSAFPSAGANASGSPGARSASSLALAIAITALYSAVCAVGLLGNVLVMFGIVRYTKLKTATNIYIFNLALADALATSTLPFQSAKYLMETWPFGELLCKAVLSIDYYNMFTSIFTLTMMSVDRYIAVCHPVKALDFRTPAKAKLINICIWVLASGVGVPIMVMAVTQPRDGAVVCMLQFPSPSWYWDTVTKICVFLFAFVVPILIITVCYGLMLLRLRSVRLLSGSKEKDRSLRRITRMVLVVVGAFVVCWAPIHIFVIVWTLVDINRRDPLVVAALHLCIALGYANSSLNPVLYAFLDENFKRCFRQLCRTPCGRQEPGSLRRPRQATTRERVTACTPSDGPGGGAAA

Row | SMILES | EC50 | Test/Control (ratio of EC50 of test compound to EC50 of NID in the same test) | fold lower in affinity than NID (summary of Table 1)
1 | Oc1ccc2c3c1O[C@H]1c4[nH]c5ccccc5c4C[C@@]4(O)[C@@H](C2)N(CC2CC2)CC[C@]314 [NID, naltrindole, reference compound] | 4.2e-09 M and 1.8e-09 M |  | 
2 | O=C(O)CN1CCN(CC(=O)O)CCN(CC(=O)O)C(Cc2ccc(NC(=O)CCCCCNC(=O)Cn3c4c(c5ccccc53)CC3(O)C5Cc6ccc(O)c7c6C3(CCN5CC3CC3)C4O7)cc2)CN(CC(=O)O)CC1 (stereo not shown) [NID-DOTA] | 1.2e-08 M | 2.8 | about 3 fold
